For two substances, effectiveness results are on record in US20090227507A1, “Angiotensin (1-7) Dosage Forms and Uses Thereof” (UNIVERSITY OF SOUTHERN CALIFORNIA, priority 2008, published 2009).

A short description of the assay: Unspecified test of effectiveness of AII fragments.

With His-Pro-Phe [AII(6-8)], the effectiveness entry was “not to be effective”.

Regarding “Tyr-Ile-His-Pro-Phe (YIHPF; printed: Tyr-Ile-His-Pro-Phe) [AII(4-8)]”, the effectiveness result is reported as “not to be effective”.
